Reference: patent EP1066315B1 (University of Dundee, priority 1998, dated 2008)
“Also recorded” adds a separate entry of the source. Residues, ends and D or L forms follow the SMILES beside them. *: point of attachment. Fmoc = O=C(OCC1c2ccccc2-c2ccccc21)*

What was measured:
[1] = test system: Human B-cell AEP; assay: Digestion of TTCF by human B-cell AEP in the presence of tetrapeptides; type: biochemical; conditions: Fig 3d
[2] = test system: EBV-transformed B cells / autologous TTCF-specific T cell clones; assay: TTCF antigen presentation by EBV-transformed B cells, read out as proliferation of autologous T cell clones; type: cell-based, human
Experimental: The invention will now be described by reference to the following Examples and Figures wherein • Figure 1: Processing of TTCF by a leupeptin-insensitive cysteine endopeptidase activity. (a) TTCF was digested in vitro in the presence of disrupted lysosomes (1-2 µg) in the presence or absence of iodoacetamide (1 mM), leupeptin, E64 or pepstatin (each at 0.1 mg/ml). Digestions were in 0.1 M NH4 acetate at pH 4.5 or Na2HPO4, pH 6.0 or 7.0. After 4 hours at 37°C, the reactions were separated by Tris-tricine SDS-PAGE and stained with Coomassie Blue. (b) Cleavage sites: TTCF digestion products were separated by SDS PAGE and electrophoretically transferred to nitrocellulose membrane. Individual fragments numbered 1-6 were subjected to 5 cycles of Edman degradation. N-terminal sequence obtained is shown in bold following upstream residues from TTCF (tetanus toxin numbering). The N-terminal sequence of His-tagged TTCF was obtained for fragments 1 and 3. (c) Residues Asn 1184 and Glu 1184 in TTCF were mutated to alanine (see Methods) and digestions performed as before. The mutation abolishes cleavage at the mutated site but not at the first site (doublet at 47 kD). In this experiment cleavage of the third site was minimal. • Figure 2: TTCF is processed by an asparaginyl endopeptidase. (a) Chromatography of the TTCF processing activity on Mono-S resin. Fractions eluted by NaCl gradient were incubated with the substrates Z-Ala-Ala-Asn-NHMec or Z-Phe-Arg-NHMec in the presence or absence of E64 (trans-epoxysuccinyl-L-leucylamido-(4-guanidino)butane). […] (c) Each fraction was analysed by SDS-PAGE and Western blotting. […] Release of 7-amino-4-methyl coumarin was measured after 10, 20 or 30 minutes. […] At different times the cells were washed, fixed in 0.05 % glutaraldehyde and antigen presentation measured using proliferation of different autologous TTCF-specific T cell clones. c, AEP pre-processing of TTCF speeds antigen presentation. […] Presentation was measured after 60 minutes of antigen pulsing using EBV B cells. […]

Which results are given for `C[C@H](NC(=O)OCC1c2ccccc2-c2ccccc21)C(=O)N[C@@H](CCC(=O)O)C(=O)N[C@@H](CC(N)=O)C(=O)N[C@@H](CCCCN)C(N)=O` [AENK, Ala-Glu-Asn-Lys-NH] (Fmoc-AENK-NH2)?
inhibition of TTCF digestion by human B-cell AEP [1]: inhibited; presentation of AEP-pre-processed antigen ([2]; EBV B cells, TTCF pre-processed with AEP, 60 minutes of antigen pulsing, Fig 9d): no longer inhibited; also recorded: did not block; antigen presentation by EBV-B cells ([2]; EBV-B cells from donor, 2 mg/ml peptide, Fig 9b): blocked antigen presentation by EBV-B cells very effectively
